Data reported in patent US11078170B2 (Assembly Biosciences, Inc., priority 2017, dated 2021).

Test system: HBV viral production from HepAD38 cells
Assay: Activity of test compounds on viral production from HepAD38 cells (viral load by qPCR of HBV core sequence in supernatant)
Type: cell-based
Settings: Hepatitis B virus, 120 h, 5 days incubation, HBV DNA in supernatant by qPCR, top concentration 10 μM, read-out: Viral Load EC50 Activity range
Summary of the method: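 HepAD38 cells, 50,000/well in tetracycline-free 2% FBS medium, treated 5 days at 37° C. with compound from 10 μM top concentration. HBV DNA in supernatant quantified by TaqMan qPCR of core sequence against DNA standards, relative to DMSO wells; CellTiter-Glo viability read in parallel. EC50/CC50 from four-parameter logistic fit.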

**Q.** Which EC50 does the source give for `CN1[C@H](C(=O)Nc2ccc(F)c(Cl)c2)C[C@H](c2cc(-c3cn[nH]c3)cs2)NS1(=O)=O` [HBV-CSU-245-ISO-I] here?
**A.** The EC50 was < 1000 nM.

**Q.** Which EC50 does the source give for `[2H]C1[C@]([2H])(C(=O)Nc2ccc(F)c(Cl)c2)N(C([2H])([2H])[2H])S(=O)(=O)N[C@]1([2H])c1ncc(-c2cn(C)cn2)s1` (stereo in doubt) [HBV-CSU-340-ISO-II, Cis-N-(3-Chloro-4-fluorophenyl)-2-(methyl-d3)-5-(5-(1-methyl-1H-imidazol-4-yl)thiazol-2-yl)-1,2,6-thiadiazinane-3,4,5-d3-3-carboxamide 1,1-dioxide] here?
**A.** The EC50 was 1000 to 5000 nM.

**Q.** How did the EC50 turn out when `CN1C(C(=O)Nc2ccc(F)c(Br)c2)CC(c2cc(Br)cs2)NS1(=O)=O` (racemic) [HBV-CSU-258, Cis-N-(3-Bromo-4-fluorophenyl)-5-(4-bromothiophen-2-yl)-2-methyl-1,2,6-thiadiazinane-3-carboxamide 1,1-dioxide] was run?
**A.** Its EC50 is < 1000 nM.

**Q.** With `Cc1csc([C@H]2C[C@@H](C(=O)Nc3ccc(F)c(Cl)c3)N(C)S(=O)(=O)N2)c1` [HBV-CSU-147-ISO-I, Cis-N-(3-chloro-4-fluorophenyl)-2-methyl-5-(4-methylthiophen-2-yl)-1,2,6-thiadiazinane-3-carboxamide 1,1-dioxide] as the compound, how does the EC50 read?
**A.** The EC50 was < 1000 nM.

**Q.** Which EC50 does the source give for `CN(C)CCCOc1cccc(C2CC(C(=O)Nc3ccc(F)c(Cl)c3)N(C)S(=O)(=O)N2)c1` (stereo not drawn) [HBV-CSU-209, Cis-N-(3-Chloro-4-fluorophenyl)-5-(3-(3-(dimethylamino)propoxy)phenyl)-2-methyl-1,2,6-thiadiazinane-3-carboxamide 1,1-dioxide] here?
**A.** Its EC50 is < 1000 nM.

**Q.** How did the EC50 turn out when `CN1C(C(=O)Nc2ccc(F)c(Cl)c2)CC(c2ccc(-c3ncn(C)n3)s2)NS1(=O)=O` (racemic) [HBV-CSU-322, Cis-N-(3-Chloro-4-fluorophenyl)-2-methyl-5-(5-(1-methyl-1H-1,2,4-triazol-3-yl)thiophen-2-yl)-1,2,6-thiadiazinane-3-carboxamide 1,1-dioxide] was run?
**A.** Its EC50 is < 1000 nM.

**Q.** For `CCc1sc([C@H]2C[C@@H](C(=O)Nc3ccc(F)c(Cl)c3)N(C)S(=O)(=O)N2)cc1-c1cnn(C)c1` [HBV-CSU-305-ISO-I, Cis-N-(3-Chloro-4-fluorophenyl)-5-(5-ethyl-4-(1-methyl-1H-pyrazol-4-yl)thiophen-2-yl)-2-methyl-1,2,6-thiadiazinane-3-carboxamide 1,1-dioxide], which EC50 is on record?
**A.** Its EC50 is < 1000 nM.

**Q.** Which EC50 does the source give for `CCc1sc([C@@H]2C[C@H](C(=O)Nc3ccc(F)c(Cl)c3)N(C)S(=O)(=O)N2)cc1-c1cnn(C)c1` [HBV-CSU-305-ISO-II, Cis-N-(3-Chloro-4-fluorophenyl)-5-(5-ethyl-4-(1-methyl-1H-pyrazol-4-yl)thiophen-2-yl)-2-methyl-1,2,6-thiadiazinane-3-carboxamide 1,1-dioxide] here?
**A.** The EC50 was 1000 to 5000 nM.

**Q.** With `CN1[C@@H](C(=O)Nc2ccc(F)c(Cl)c2)C[C@@H](c2ccc(C(=O)O)cc2)NS1(=O)=O` [HBV-CSU-218-ISO-II, Cis-4-(5-((3-Chloro-4-fluorophenyl)carbamoyl)-6-methyl-1,1-dioxido-1,2,6-thiadiazinan-3-yl)benzoic acid] as the compound, how does the EC50 read?
**A.** Its EC50 is 1000 to 5000 nM.

**Q.** For `CN1[C@@H](C(=O)Nc2ccc(F)c(Cl)c2)C[C@@H](c2cc(-c3cnn(C)c3)cs2)NS1(=O)=O` [HBV-CSU-169-ISO-II, Cis-N-(3-chloro-4-fluorophenyl)-2-methyl-5-(4-(1-methyl-1H-pyrazol-4-yl)thiophen-2-yl)-1,2,6-thiadiazinane-3-carboxamide 1,1-dioxide], which EC50 is on record?
**A.** The EC50 was 1000 to 5000 nM.

**Q.** For `CN1C(C(=O)Nc2ccc(F)c(Br)c2)CC(c2ccc(Br)s2)NS1(=O)=O` (stereo not drawn) [HBV-CSU-257, Cis-N-(3-Bromo-4-fluorophenyl)-5-(5-bromothiophen-2-yl)-2-methyl-1,2,6-thiadiazinane-3-carboxamide 1,1-dioxide], which EC50 is on record?
**A.** Its EC50 is < 1000 nM.

**Q.** With `CN1C(C(=O)Nc2ccc(F)c(Cl)c2)CC(c2cc(-c3ccnn3C)cs2)NS1(=O)=O` (racemic) [HBV-CSU-289, Cis-N-(3-chloro-4-fluorophenyl)-2-methyl-5-(4-(1-methyl-1H-pyrazol-5-yl)thiophen-2-yl)-1,2,6-thiadiazinane-3-carboxamide 1,1-dioxide] as the compound, how does the EC50 read?
**A.** The EC50 was < 1000 nM.

**Q.** How did the EC50 turn out when `COc1ccc(-c2cnc([C@H]3C[C@@H](C(=O)Nc4ccc(F)c(Cl)c4)N(C)S(=O)(=O)N3)s2)cc1` [HBV-CSU-250-ISO-I, Cis-N-(3-Chloro-4-fluorophenyl)-5-(5-(4-methoxyphenyl)thiazol-2-yl)-2-methyl-1,2,6-thiadiazinane-3-carboxamide 1,1-dioxide] was run?
**A.** Its EC50 is < 1000 nM.

**Q.** `COCCN1[C@H](C(=O)Nc2ccc(F)c(Br)c2)C[C@H](c2nccs2)NS1(=O)=O` [HBV-CSU-059-ISO-II, Cis-N-(3-bromo-4-fluorophenyl)-2-(2-methoxyethyl)-5-(thiazol-2-yl)-1,2,6-thiadiazinane-3-carboxamide 1,1-dioxide] was tested. Which EC50 did it give?
**A.** The EC50 was < 1000 nM.

**Q.** Which EC50 does the source give for `CN1C(C(=O)Nc2ccc(F)c(Cl)c2)CC(c2ccc(-c3cncn3C)s2)NS1(=O)=O` (racemic) [HBV-CSU-267, Cis-N-(3-Chloro-4-fluorophenyl)-2-methyl-5-(5-(1-methyl-1H-imidazol-5-yl)thiophen-2-yl)-1,2,6-thiadiazinane-3-carboxamide 1,1-dioxide] here?
**A.** The EC50 was < 1000 nM.

**Q.** Which EC50 does the source give for `COc1cccc(C2CC(C(=O)Nc3ccc(F)c(Cl)c3)N(C)S(=O)(=O)N2)c1` (stereo not drawn) [HBV-CSU-204, Cis-N-(3-Chloro-4-fluorophenyl)-5-(3-methoxyphenyl)-2-methyl-1,2,6-thiadiazinane-3-carboxamide 1,1-dioxide] here?
**A.** Its EC50 is < 1000 nM.

**Q.** Which EC50 does the source give for `CN1C(C(=O)Nc2ccc(F)c(Cl)c2)CC(c2cnc(-c3ccccc3)s2)NS1(=O)=O` (stereo not drawn) [HBV-CSU-235, N-(3-Chloro-4-fluorophenyl)-2-methyl-5-(2-phenylthiazol-5-yl)-1,2,6-thiadiazinane-3-carboxamide 1,1-dioxide] here?
**A.** The EC50 was < 1000 nM.

**Q.** Which EC50 does the source give for `CN1[C@@H](C(=O)Nc2ccc(F)c(Br)c2)C[C@@H](c2ccc(F)cc2)NS1(=O)=O` [HBV-CSU-211-ISO-II, Cis-N-(3-Bromo-4-fluorophenyl)-5-(4-fluorophenyl)-2-methyl-1,2,6-thiadiazinane-3-carboxamide 1,1-dioxide] here?
**A.** Its EC50 is > 5000 nM.

**Q.** With `Cc1cc([C@H]2C[C@@H](C(=O)Nc3ccc(F)c(Cl)c3)N(C)S(=O)(=O)N2)sc1-c1cnn(C)c1` (relative stereo) [HBV-CSU-300-ISO-I, Cis-N-(3-Chloro-4-fluorophenyl)-5-(4-methyl-5-(1-methyl-1H-pyrazol-4-yl)thiophen-2-yl)-2-methyl-1,2,6-thiadiazinane-3-carboxamide 1,1-dioxide] as the compound, how does the EC50 read?
**A.** Its EC50 is < 1000 nM.

**Q.** How did the EC50 turn out when `CN(C)CCCOc1ccc(C2CC(C(=O)Nc3ccc(F)c(Cl)c3)N(C)S(=O)(=O)N2)cc1` (racemic) [HBV-CSU-208, Cis-N-(3-chloro-4-fluorophenyl)-5-(4-(3-(dimethylamino)propoxy)phenyl)-2-methyl-1,2,6-thiadiazinane-3-carboxamide 1,1-dioxide] was run?
**A.** The EC50 was < 1000 nM.

**Q.** With `CCn1cc(-c2csc([C@@H]3C[C@H](C(=O)Nc4ccc(F)c(Cl)c4)N(C)S(=O)(=O)N3)c2)cn1` [HBV-CSU-294-ISO-II, Cis-N-(3-chloro-4-fluorophenyl)-5-(4-(1-ethyl-1H-pyrazol-4-yl)thiophen-2-yl)-2-methyl-1,2,6-thiadiazinane-3-carboxamide 1,1-dioxide] as the compound, how does the EC50 read?
**A.** Its EC50 is 1000 to 5000 nM.

**Q.** How did the EC50 turn out when `CN1C(C(=O)Nc2ccc(F)c(Cl)c2)CC(c2cc(-c3ccn(C)n3)cs2)NS1(=O)=O` (racemic) [HBV-CSU-288, Cis-N-(3-Chloro-4-fluorophenyl)-2-methyl-5-(4-(1-methyl-1H-pyrazol-3-yl)thiophen-2-yl)-1,2,6-thiadiazinane-3-carboxamide 1,1-dioxide] was run?
**A.** The EC50 was < 1000 nM.

**Q.** With `CN1[C@@H](C(=O)Nc2ccc(F)c(Cl)c2)C[C@@H](c2ccc(-c3ccccn3)s2)NS1(=O)=O` [HBV-CSU-160-ISO-II, Cis-N-(3-chloro-4-fluorophenyl)-2-methyl-5-(5-(pyridin-2-yl)thiophen-2-yl)-1,2,6-thiadiazinane-3-carboxamide 1,1-dioxide] as the compound, how does the EC50 read?
**A.** Its EC50 is 1000 to 5000 nM.

**Q.** Which EC50 does the source give for `Cc1cc([C@@H]2C[C@H](C(=O)Nc3ccc(F)c(Cl)c3)N(C)S(=O)(=O)N2)sc1-c1cnn(C)c1` [HBV-CSU-300-ISO-II, Cis-N-(3-Chloro-4-fluorophenyl)-5-(4-methyl-5-(1-methyl-1H-pyrazol-4-yl)thiophen-2-yl)-2-methyl-1,2,6-thiadiazinane-3-carboxamide 1,1-dioxide] here?
**A.** Its EC50 is > 5000 nM.

**Q.** Which EC50 does the source give for `CN1C(C(=O)Nc2cccc(C(F)(F)F)c2)CC(c2cccs2)NS1(=O)=O` (stereo not drawn) [HBV-CSU-012, Cis-2-Methyl-5-(thiophen-2-yl)-N-(3-(trifluoromethyl)phenyl)-1,2,6-thiadiazinane-3-carboxamide 1,1-dioxide] here?
**A.** Its EC50 is 1000 to 5000 nM.

**Q.** Which EC50 does the source give for `CN1[C@H](C(=O)Nc2ccc(F)c(Cl)c2)C[C@H](c2ncc(Br)s2)NS1(=O)=O` [HBV-CSU-122-ISO-I, (3S,5R)-5-(5-bromothiazol-2-yl)-N-(3-chloro-4-fluorophenyl)-2-methyl-1,2,6-thiadiazinane-3-carboxamide 1,1-dioxide] here?
**A.** Its EC50 is < 1000 nM.

**Q.** For `CN1[C@@H](C(=O)Nc2ccc(F)c(Cl)c2)C[C@@H](c2cc(Br)cs2)NS1(=O)=O` [HBV-CSU-146-ISO-II, 5-(4-Bromothiophen-2-yl)-N-(3-chloro-4-fluorophenyl)-2-methyl-1,2,6-thiadiazinane-3-carboxamide 1,1-dioxide], which EC50 is on record?
**A.** The EC50 was > 5000 nM.

**Q.** With `O=C(Nc1ccc(F)c(Cl)c1)[C@@H]1C[C@H](c2nccs2)NS(=O)(=O)N1` [HBV-CSU-096-ISO-II, Cis-N-(3-Chloro-4-fluorophenyl)-5-(thiazol-2-yl)-1,2,6-thiadiazinane-3-carboxamide 1,1-dioxide] as the compound, how does the EC50 read?
**A.** Its EC50 is < 1000 nM.

**Q.** Which EC50 does the source give for `CN1[C@@H](C(=O)Nc2ccc(F)c(Cl)c2)C[C@@H](c2cc(-c3cccnc3)cs2)NS1(=O)=O` [HBV-CSU-167-ISO-II, Cis-N-(3-chloro-4-fluorophenyl)-2-methyl-5-(4-(pyridin-3-yl)thiophen-2-yl)-1,2,6-thiadiazinane-3-carboxamide 1,1-dioxide] here?
**A.** Its EC50 is > 5000 nM.

**Q.** With `CN1[C@@H](C(=O)Nc2ccc(F)c(Cl)c2)C[C@H](c2ccc(Br)s2)NS1(=O)=O` [HBV-CSU-114-Trans-ISO-I, (3R,5R)-5-(5-bromothiophen-2-yl)-N-(3-chloro-4-fluorophenyl)-2-methyl-1,2,6-thiadiazinane-3-carboxamide 1,1-dioxide] as the compound, how does the EC50 read?
**A.** Its EC50 is 1000 to 5000 nM.
